The values below are quoted from earlier work in patent publication US11207297B2, “Liquid pharmaceutical composition of clonidine” (SYRI LTD, priority 2016, dated 2021).

Structures are written as SMILES.

The conditions of this data set: after oral administration.

On to `Clc1cccc(Cl)c1N=C1NCCN1` [clonidine, N-(2,6-dichlorophenyl)-4,5-dihydro-1H-imidazol-2-amine], for which the “Absorption from the gastrointestinal tract” value is listed as “almost completely absorbed”.
